Experimental data taken from US9943569B2, “Method for preventing or reducing postoperative pulmonary complications” (OSAKA UNIVERSITY, priority 2015, dated 2018).

Columns and labels:
Format in all cases: in vivo, human
[1] = system: patients undergoing esophagectomy; experiment: SIRS duration after esophagectomy, randomized placebo-controlled phase II study; conditions: ghrelin 0.5 μg/kg/h continuous i.v. infusion for 5 days, n=20
Protocol: Forty patients undergoing esophagectomy were randomly assigned to either the ghrelin group (n=20), which received continuous infusion of ghrelin (0.5 μg/kg/h) for 5 days, or the placebo group (n=20), which received pure saline for 5 days. The primary endpoint was SIRS duration. The secondary endpoints were the incidence of postoperative complications, time of a negative nitrogen balance, changes in body weight and composition, and levels of inflammatory markers, including C-reactive protein (CRP) and interleukin-6 (IL-6).
Forty patients with primary esophageal cancer who underwent esophagectomy were selected to participate in a randomized, placebo-controlled phase II study. The patients were selected based on the following eligibility criteria: (1) thoracic esophageal cancer treated by performing radical esophagectomy with gastric tube reconstruction; (2) age 20 to 75 years; (3) adequate functioning of major organs; (4) no other active malignancies; and (5) provision of written informed consent. […] The study was performed in a double-blind manner, and an independent researcher assessed outcomes.
The primary endpoint of this study was SIRS duration. […] The same amount of ghrelin was administered via intravenous infusion during the 5 days of treatment; the dose was calculated on the basis of body weight on the day before surgery. […]

[2] = system: interleukin-6 (IL-6); experiment: Postoperative change in serum IL-6 (enzyme immunoassay); conditions: n=20
Protocol: (§1) The primary endpoint of this study was SIRS duration. The secondary endpoints were postoperative complications, serum C-reactive protein (CRP) and IL-6 levels, time required to attain a positive nitrogen balance, and changes in body weight and body composition. Postoperative complications were defined as adverse events caused by surgery. Patients received an intravenous continuous infusion of ghrelin (0.5 μg/kg/h) or placebo (pure saline) for 5 days postoperatively. Ghrelin was diluted to a final volume of 48 mL with saline, and the solution was administered at a rate of 2 mL/h by using an infusion pump through a central venous catheter inserted into the right subclavian vein. The same amount of ghrelin was administered via intravenous infusion during the 5 days of treatment; the dose was calculated on the basis of body weight on the day before surgery. Patients in the placebo group received the corresponding infusion containing pure saline using same procedure.
(§2) Blood sampling was performed at the following 7 time points: before surgery; 2 hours after initiation of surgery (during thoracotomy); 4 hours after initiation of surgery (during laparotomy); and on PODs 1, 3, 7, and 10. Complete blood count was performed every day for at least 10 PODs. If the leukocyte count was not within the normal range on POD10, complete blood counts were performed daily until it was within the normal range for 3 consecutive days. SIRS was diagnosed according to the criteria proposed by the American College of Chest Physicians/Society of Critical Care Medicine Consensus Conference^32 and when 2 or more of the following criteria were present: (1) body temperature less than 36° C. or more than 38° C.; (2) heart rate more than 90 beats per minute; (3) tachypnea with more than 20 breaths per minute or an arterial partial pressure of carbon dioxide less than 32 mm Hg; and (4) white blood cell count less than 4000 cells/mm^3, >12,000 cells/mm^3, or an immature (band) form more than 10%. Postoperative complications were evaluated according to the Clavien-Dindo classification.^33 Grade I required no treatment, grade II required medical therapy, grade Ma required interventions but not general anesthesia, grade Mb required general anesthesia, grade IV represented life-threatening states that required intensive care, and grade V represented death.
(§3) Sampled blood was immediately transferred into a chilled glass tube containing disodium ethylenediaminetetraacetic acid for plasma sampling or a separating agent for serum sampling, and the samples were then centrifuged at 4° C. Plasma samples were mixed with a 10% volume of 1 N HCl and stored at −80° C. Serum samples were directly stored at −80° C. Sandwich-type enzyme immunoassay kits were used to measure levels of plasma active ghrelin, des-acyl ghrelin, and serum IL-6 according to the manufacturers' protocols (for ghrelin: Mitsubishi Kagaku Iatron, Inc, Tokyo, Japan; for IL-6: R&D Systems, Minneapolis, Minn.). Total plasma ghrelin levels were calculated as the active ghrelin level plus the des-acyl ghrelin level.^34 An Access 2 kit, a chemiluminescent enzyme immunoassay (Beckman Coulter, Inc, Brea, Calif.), was used to measure serum GH levels.

[3] = system: patients undergoing esophagectomy; experiment: Laboratory tests, nutrition status and hormone assays, preoperative and POD7
Protocol: as §1, §2, §3

CCCCCCCC(=O)OC[C@H](NC(=O)[C@H](CO)NC(=O)CN)C(=O)N[C@@H](Cc1ccccc1)C(=O)N[C@@H](CC(C)C)C(=O)N[C@@H](CO)C(=O)N1CCC[C@H]1C(=O)N[C@@H](CCC(=O)O)C(=O)N[C@@H](Cc1cnc[nH]1)C(=O)N[C@@H](CCC(N)=O)C(=O)N[C@@H](CCCNC(=N)N)C(=O)N[C@H](C(=O)N[C@@H](CCC(N)=O)C(=O)N[C@@H](CCC(N)=O)C(=O)N[C@@H](CCCNC(=N)N)C(=O)N[C@@H](CCCCN)C(=O)N[C@@H](CCC(=O)O)C(=O)N[C@@H](CO)C(=O)N[C@@H](CCCCN)C(=O)N[C@@H](CCCCN)C(=O)N1CCC[C@H]1C(=O)N1CCC[C@H]1C(=O)N[C@@H](C)C(=O)N[C@@H](CCCCN)C(=O)N[C@@H](CC(C)C)C(=O)N[C@@H](CCC(N)=O)C(=O)N1CCC[C@H]1C(=O)N[C@@H](CCCNC(=N)N)C(=O)O)C(C)C [ghrelin]
SIRS duration [1]: 3.0 ± 2.9 days
Serum IL-6 ([2]; POD1): 95.2 ± 131.0 pg/mL
Serum IL-6 ([2]; POD3): 43.1 ± 47.1 pg/mL
Serum IL-6 ([2]; POD3, listed as Ghrelin): 43.1 ± 47.1 pg/mL
Serum IL-6 ([2]; POD7): 15.3 ± 11.3 pg/mL
Serum IL-6 ([2]; POD10): 14.2 ± 17.9 pg/mL
Serum IL-6 ([2]; Preoperative (baseline)): 4.3 ± 4.8 pg/mL
Alanine aminotransferase ([3]; Postoperative (POD7)): 40.6 ± 24.6 IU/L
Albumin ([3]; Postoperative (POD7)): 2.99 ± 0.45 g/dL
Asparate aminotransferase ([3]; Postoperative (POD7)): 34.0 ± 15.9 IU/L
Blood urea nitrogen ([3]; Postoperative (POD7)): 19.3 ± 6.8 mg/dL
Choline esterase ([3]; Postoperative (POD7)): 154.1 ± 50.7 IU/L
Creatinine ([3]; Postoperative (POD7)): 0.77 ± 0.19
Growth hormone ([3]; Postoperative (POD7)): 1.08 ± 1.16 ng/mL
Hemoglobin ([3]; Postoperative (POD7)): 10.1 ± 1.3 g/dL
Leukocytes ([3]; Postoperative (POD7)): 9068 ± 2633 /mm
Lymphocytes ([3]; Postoperative (POD7)): 1380 ± 495 /mm
Retinol binding protein ([3]; Postoperative (POD7)): 3.63 ± 1.56 mg/dL
Total bilirubin ([3]; Postoperative (POD7)): 1.25 ± 0.80 mg/dL
Total protein ([3]; Postoperative (POD7)): 5.66 ± 0.70 g/dL
Transferrin ([3]; Postoperative (POD7)): 146.4 ± 35.3 mg/dL
Transthyretin ([3]; Postoperative (POD7)): 20.1 ± 6.7 mg/dL
Alanine aminotransferase ([3]; Preoperative (baseline)): 18.3 ± 14.1 IU/L
Albumin ([3]; Preoperative (baseline)): 3.78 ± 0.50 g/dL
Asparate aminotransferase ([3]; Preoperative (baseline)): 20.2 ± 7.2 IU/L
Blood urea nitrogen ([3]; Preoperative (baseline)): 15.1 ± 4.7 mg/dL
Choline esterase ([3]; Preoperative (baseline)): 263.5 ± 83.8 IU/L
Creatinine ([3]; Preoperative (baseline)): 0.88 ± 0.21
Growth hormone ([3]; Preoperative (baseline)): 0.51 ± 0.54 ng/mL
Hemoglobin ([3]; Preoperative (baseline)): 11.3 ± 1.5 g/dL
Leukocytes ([3]; Preoperative (baseline)): 5472 ± 1970 /mm
Lymphocytes ([3]; Preoperative (baseline)): 1644 ± 585 /mm
Retinol binding protein ([3]; Preoperative (baseline)): 4.86 ± 1.71 mg/dL
Total bilirubin ([3]; Preoperative (baseline)): 0.58 ± 0.20 mg/dL
Total protein ([3]; Preoperative (baseline)): 6.44 ± 0.59 g/dL
Transferrin ([3]; Preoperative (baseline)): 198.1 ± 30.8 mg/dL
Transthyretin ([3]; Preoperative (baseline)): 28.8 ± 9.1 mg/dL
